Results on two compounds are retold here after patent publication US11185532B2, “Methods of treating pruritus” (Clexio Biosciences Ltd., priority 2019, dated 2021).

Read-outs that look alike come from different tables or passages of the source.

For data set [1], the target named is T1, SST4 (Homo sapiens, UniProt P31391). The data set is described as follows: biochemical.
The target in the next data set is Adrenergic α2C (Homo sapiens, UniProt P18825). The data set is described as follows: biochemical.
In another data set the target is Adrenergic α2A (Homo sapiens, UniProt P08913). As to the kind of experiment: biochemical.
The target of data set [2] is T1, SST4. The data set is described as follows: In vitro functional assay, SST4. In kind it is cell-based. The following applies: agonist; highest concentration tested 10 μm.
The target of a further data set is T2, HRH4 (Homo sapiens, UniProt Q9H3N8).
T2 construct: Eurofins Discover X, USA
The data set is described as follows: β-arrestin GPCR internalization assay. The data set is classed as cell-based. To be noted: for EC50: read-out: RC50 (EC50).

For data set [3], the system named is PNT-induced neuropathic pain in pigs. As to the kind of experiment: Peripheral neuritis trauma (PNT)-induced neuropathic pain in pigs. In kind it is in vivo. The following applies: topical twice daily 0.1%, 0.33%, 1%. An excerpt: 30 pigs were anaesthetized and an incision of 8-10 cm made through the skin and fascia on the left side of their lower backs, approximately 1 cm lateral and parallel to the spine line. The muscles were retracted and the sciatic nerve exposed. Following exposure, PNT was induced by loosely tying (1-2 mm apart) around the lateral half of the sciatic nerve bundle, three 3-0 silk threads, each previously immersed in complete Freund's adjuvant. 14 days after surgery and once chronic neuropathic pain had been established, treatment was initiated according to the protocol shown in Table 5. [table] At time points over the following 14 days, the animals were assessed for a variety of pain and motor parameters.

T1 sequence (P31391 whole entry): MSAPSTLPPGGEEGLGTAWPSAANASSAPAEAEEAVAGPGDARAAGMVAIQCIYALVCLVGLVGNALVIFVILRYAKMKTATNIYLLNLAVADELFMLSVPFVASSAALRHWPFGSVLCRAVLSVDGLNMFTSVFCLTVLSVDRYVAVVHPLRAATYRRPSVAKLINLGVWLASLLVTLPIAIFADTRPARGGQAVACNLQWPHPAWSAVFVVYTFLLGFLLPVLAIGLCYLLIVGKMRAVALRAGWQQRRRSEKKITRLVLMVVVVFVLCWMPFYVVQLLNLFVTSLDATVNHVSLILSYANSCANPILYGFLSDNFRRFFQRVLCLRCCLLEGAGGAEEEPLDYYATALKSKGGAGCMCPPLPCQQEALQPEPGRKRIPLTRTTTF
T2 sequence (Q9H3N8 whole entry): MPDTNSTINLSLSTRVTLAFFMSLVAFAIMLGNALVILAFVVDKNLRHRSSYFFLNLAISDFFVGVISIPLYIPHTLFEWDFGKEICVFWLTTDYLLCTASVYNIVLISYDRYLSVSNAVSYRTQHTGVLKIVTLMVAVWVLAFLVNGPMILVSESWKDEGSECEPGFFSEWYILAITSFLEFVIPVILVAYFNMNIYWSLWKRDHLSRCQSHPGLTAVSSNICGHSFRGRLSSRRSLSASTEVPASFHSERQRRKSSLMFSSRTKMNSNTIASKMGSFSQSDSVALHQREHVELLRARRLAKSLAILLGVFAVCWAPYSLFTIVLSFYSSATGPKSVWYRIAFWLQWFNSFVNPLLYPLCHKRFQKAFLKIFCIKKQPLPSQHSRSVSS
Sequence of Adrenergic α2A (P08913 whole entry): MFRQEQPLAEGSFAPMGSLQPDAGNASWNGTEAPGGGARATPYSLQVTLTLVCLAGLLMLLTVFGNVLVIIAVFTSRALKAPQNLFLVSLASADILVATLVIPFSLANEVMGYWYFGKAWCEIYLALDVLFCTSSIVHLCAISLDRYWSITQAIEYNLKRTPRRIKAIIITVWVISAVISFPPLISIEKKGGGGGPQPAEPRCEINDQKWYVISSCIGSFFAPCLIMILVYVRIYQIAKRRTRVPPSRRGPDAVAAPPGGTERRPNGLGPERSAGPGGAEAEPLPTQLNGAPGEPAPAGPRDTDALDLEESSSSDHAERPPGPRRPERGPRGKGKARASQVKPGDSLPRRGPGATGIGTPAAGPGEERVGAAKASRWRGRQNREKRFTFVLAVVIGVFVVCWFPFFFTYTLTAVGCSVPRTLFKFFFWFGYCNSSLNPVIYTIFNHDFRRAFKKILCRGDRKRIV
Sequence of Adrenergic α2C (P18825 whole entry): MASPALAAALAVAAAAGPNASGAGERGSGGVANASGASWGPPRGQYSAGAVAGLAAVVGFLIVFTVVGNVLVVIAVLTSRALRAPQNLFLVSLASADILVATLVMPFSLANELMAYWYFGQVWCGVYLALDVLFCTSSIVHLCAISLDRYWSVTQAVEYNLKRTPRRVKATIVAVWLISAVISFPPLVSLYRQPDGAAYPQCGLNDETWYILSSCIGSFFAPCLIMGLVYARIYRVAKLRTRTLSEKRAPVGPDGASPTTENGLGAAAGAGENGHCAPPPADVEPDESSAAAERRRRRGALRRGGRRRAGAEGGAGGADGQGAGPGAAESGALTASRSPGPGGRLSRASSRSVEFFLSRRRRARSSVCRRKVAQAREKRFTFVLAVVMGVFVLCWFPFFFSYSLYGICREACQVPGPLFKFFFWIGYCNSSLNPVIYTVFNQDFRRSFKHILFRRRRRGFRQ

By inhibition is commonly meant the relative decrease from the control value, in per cent. Higher therefore signals strong suppression. As to `Clc1cccc(Cl)c1N=C1NCCN1` [clonidine], the inhibition at 10 µM at SST4 [1] is 13%; against Adrenergic α2C, 97%; against Adrenergic α2A, 94%.
For orientation: EC50 means the concentration that produces a half-maximal response. Usually IC50 stands for the point on the concentration scale where inhibition reaches its midpoint. With `Cc1cccc(Cc2c[nH]cn2)c1C` [detomidine], the EC50 on SST4 [2] is 7.3 µM; at HRH4 (assay format: Agonist), 9.6 µM; on HRH4 (assay format: Inverse agonist), greater than 100 µM. Also, 10 µM produced 35% inhibition at SST4 [1]. In addition, the IC50 on HRH4 (assay format: Antagonist, read-out: RC50 (IC50)) is greater than 100 µM. In addition, the “Stimulus-evoked pain, Von Frey (VF) withdrawal threshold” value in data set [3] (14 days, versus placebo, from Day 0) is “dose-dependent analgesic effect”. In addition, the “Tactile allodynia, feather stimulation” value in data set [3] (12-13 cm pigeon feather, as soon as Day 0) is recorded as “dose-dependent decreased tactile allodynia”. Besides, the “Spontaneous pain behavior, General Behavioral Score (GBS)” value in data set [3] (3 h and 6 h post-dose, from Day 0) is “dose-dependent reduction in GBS scores”. In addition, in data set [3] (throughout the study), the “Open field motor test, locomotor activity / sedation” value is reported as “did not affect locomotor activity at any dose level”.
